US9877956B2, “Antiviral compounds and methods of use thereof” (Trana Discovery, Inc., priority 2014, dated 2018)
Where “and” joins values, the source holds several entries; their conditions need not be identical. Identical values can stand only once.

What was measured:
Format in all cases: cell-based
HIV-1/Ba-L = test: Inhibition of HIV-1 Ba-L replication in PBMC (RT values); conditions: for % VC: RT relative to virus control; for RT Values (cpm), SAMPLE: individual samples
Protocol: (§1) These compounds were further screened for activity in HIV-1-infected peripheral blood mononuclear cells (PBMC). The data (experiments were repeated, so duplicates are shown) is summarized in the tables below, and also in FIGS. 4A-B and 5A-B.
The HIV strain was HIV-1/Ba-L. The titer was 0.1 μL/well.

[1] = Toxicity in PBMC (Cell Titer 96); conditions: human, peripheral blood mononuclear cells (PBMC); PBMC, Cell Titer 96
Source text: as §1

PBMC = test: Toxicity in PBMC (Cell Titer 96); conditions: for % CC: O.D. relative to cell control; for TOXICITY VALUES (Cell Titer 96 - O.D. @ 490/650 nm), SAMPLE: individual samples
Source text: as §1

[2] = Human immunodeficiency virus 1, BAL, PBMC, HIV-1 Ba-L in PBMC

CC1(C)OC(=O)C(=Cc2ccc(I)o2)C(=O)O1 [HIT #156]
% VC (HIV-1/Ba-L; 0.01 μM): 112.3% and 106.4%
RT Values (cpm), SAMPLE (HIV-1/Ba-L; 0.01 μM): 10480 cpm and 8884 cpm and 11894 cpm and 25643 cpm and 28270 cpm and 33067 cpm
% VC (HIV-1/Ba-L; 0.03 μM): 84.0% and 99.4%
RT Values (cpm), SAMPLE (HIV-1/Ba-L; 0.03 μM): 6505 cpm and 8625 cpm and 8243 cpm and 25769 cpm and 26494 cpm and 29027 cpm
% VC (HIV-1/Ba-L; 0.10 μM): 68.9% and 122.1%
RT Values (cpm), SAMPLE (HIV-1/Ba-L; 0.10 μM): 8064 cpm and 6238 cpm and 4871 cpm and 38847 cpm and 24637 cpm and 36331 cpm
% VC (HIV-1/Ba-L; 0.32 μM): 81.3% and 86.3%
RT Values (cpm), SAMPLE (HIV-1/Ba-L; 0.32 μM): 8253 cpm and 7009 cpm and 7376 cpm and 18012 cpm and 26707 cpm and 25800 cpm
% VC (HIV-1/Ba-L; 1.00 μM): 64.5% and 85.3%
RT Values (cpm), SAMPLE (HIV-1/Ba-L; 1.00 μM): 9732 cpm and 5647 cpm and 2583 cpm and 21965 cpm and 22751 cpm and 25042 cpm
% VC (HIV-1/Ba-L; 3.16 μM): 27.9% and 43.2%
RT Values (cpm), SAMPLE (HIV-1/Ba-L; 3.16 μM): 6132 cpm and 1058 cpm and 586 cpm and 6829 cpm and 9899 cpm and 18609 cpm
% VC (HIV-1/Ba-L; 10.0 μM): 6.4% and 12.6%
RT Values (cpm), SAMPLE (HIV-1/Ba-L; 10.0 μM): 635 cpm and 579 cpm and 575 cpm and 9437 cpm and 247 cpm and 585 cpm
% VC (HIV-1/Ba-L; 31.6 μM): 1.6% and 2.3%
RT Values (cpm), SAMPLE (HIV-1/Ba-L; 31.6 μM): 54 cpm and 94 cpm and 290 cpm and 120 cpm and 1345 cpm and 378 cpm
% VC (HIV-1/Ba-L; 100 μM): 0.1% and 0.0%
RT Values (cpm), SAMPLE (HIV-1/Ba-L; 100 μM): 18 cpm and 2 cpm and 0 cpm
IC50 (HIV-1/Ba-L; HIV-1 Ba-L in PBMC): 2.63 µM
IC90 (HIV-1/Ba-L; HIV-1 Ba-L in PBMC): 13.3 µM
IC 95% (HIV-1/Ba-L; HIV-1 Ba-L in PBMC): 14.0 µM and 23.3 µM
IC50 (HIV-1/Ba-L; [2]): 1.58 µM
IC90 (HIV-1/Ba-L; [2]): 8.26 µM
ANTIVIRAL INDEX (AI) 50% (HIV-1/Ba-L; TC/IC at 50%): >63.3 and >38.1
ANTIVIRAL INDEX (AI) 90% (HIV-1/Ba-L; TC/IC at 90%): >12.1 and >7.51
ANTIVIRAL INDEX (AI) 95% (HIV-1/Ba-L; TC/IC at 95%): >7.14 and >4.30
CC50 [1]: > 100 µM
% CC (PBMC; 0.01 μM): 110.7% and 108.3%
TOXICITY VALUES (Cell Titer 96 - O.D. @ 490/650 nm), SAMPLE (PBMC; 0.01 μM): 2.344 O.D. and 1.718 O.D. and 1.852 O.D. and 0.687 O.D. and 1.030 O.D. and 0.777 O.D.
% CC (PBMC; 0.03 μM): 111.8% and 118.7%
TOXICITY VALUES (Cell Titer 96 - O.D. @ 490/650 nm), SAMPLE (PBMC; 0.03 μM): 2.336 O.D. and 1.807 O.D. and 1.831 O.D. and 0.821 O.D. and 1.115 O.D. and 0.798 O.D.
TOXICITY VALUES (Cell Titer 96 - O.D. @ 490/650 nm), MEAN (PBMC; 0.10 μM): 1.952 O.D. and 0.991 O.D.
% CC (PBMC; 0.10 μM): 109.6% and 129.1%
TOXICITY VALUES (Cell Titer 96 - O.D. @ 490/650 nm), SAMPLE (PBMC; 0.10 μM): 2.142 O.D. and 1.855 O.D. and 1.858 O.D. and 1.098 O.D. and 1.053 O.D. and 0.822 O.D.
TOXICITY VALUES (Cell Titer 96 - O.D. @ 490/650 nm), MEAN (PBMC; 0.32 μM): 1.937 O.D. and 1.031 O.D.
% CC (PBMC; 0.32 μM): 108.8% and 134.3%
TOXICITY VALUES (Cell Titer 96 - O.D. @ 490/650 nm), SAMPLE (PBMC; 0.32 μM): 2.234 O.D. and 1.808 O.D. and 1.768 O.D. and 1.094 O.D. and 1.234 O.D. and 0.765 O.D.
TOXICITY VALUES (Cell Titer 96 - O.D. @ 490/650 nm), MEAN (PBMC; 1.00 μM): 1.882 O.D. and 1.010 O.D.
% CC (PBMC; 1.00 μM): 105.7% and 131.5%
TOXICITY VALUES (Cell Titer 96 - O.D. @ 490/650 nm), SAMPLE (PBMC; 1.00 μM): 2.065 O.D. and 1.819 O.D. and 1.762 O.D. and 1.173 O.D. and 1.067 O.D. and 0.789 O.D.
TOXICITY VALUES (Cell Titer 96 - O.D. @ 490/650 nm), MEAN (PBMC; 3.16 μM): 1.914 O.D. and 1.060 O.D.
% CC (PBMC; 3.16 μM): 107.5% and 138.1%
TOXICITY VALUES (Cell Titer 96 - O.D. @ 490/650 nm), SAMPLE (PBMC; 3.16 μM): 2.179 O.D. and 1.770 O.D. and 1.792 O.D. and 1.161 O.D. and 1.175 O.D. and 0.845 O.D.
TOXICITY VALUES (Cell Titer 96 - O.D. @ 490/650 nm), MEAN (PBMC; 10.0 μM): 1.924 O.D. and 0.976 O.D.
% CC (PBMC; 10.0 μM): 108.1% and 127.1%
TOXICITY VALUES (Cell Titer 96 - O.D. @ 490/650 nm), SAMPLE (PBMC; 10.0 μM): 2.172 O.D. and 1.791 O.D. and 1.810 O.D. and 1.001 O.D. and 0.993 O.D. and 0.934 O.D.
TOXICITY VALUES (Cell Titer 96 - O.D. @ 490/650 nm), MEAN (PBMC; 31.6 μM): 1.891 O.D. and 0.979 O.D.
% CC (PBMC; 31.6 μM): 106.2% and 127.5%
TOXICITY VALUES (Cell Titer 96 - O.D. @ 490/650 nm), SAMPLE (PBMC; 31.6 μM): 2.078 O.D. and 1.741 O.D. and 1.855 O.D. and 0.997 O.D. and 1.014 O.D. and 0.926 O.D.
